Measured values reported in patent US20120070377A1, “COMPOUNDS AND BIOLOGICAL MATERIALS AND USES THEREOF” (priority 2009, published 2012).
Entries after “also recorded” stand apart in the source; their conditions may differ. Like-named read-outs stand apart in the source and are kept apart here.

Tests used:
[1] = Solubility in water or buffer (observations); format: physicochemical
SKOV3 cells = assay: Confocal fluorescence microscopy, intracellular localisation with organelle co-stains; format: cell-based, human; conditions: for golgi localisation (co-localisation with Bodipy ceramide): FIG. 20; for mitochondrial localisation (co-localisation with Mito-tracker): FIG. 21; for lysosomal localisation (co-localisation with Lyso-tracker): FIG. 22
Experimental: Imaging took place at the FILM Imperial College London on a LEICA SP5 MP inverted confocal microscope, at 37° C. and under a CO2 supplemented atmosphere. The water objective (63×) was used in all the experiments. Images were processed using the Leica software, Image J and Powerpoint.
Note: in any experiment where a photosensitiser is used on cells, the experiment is done under subdued lighting exposing the cells to as little light as possible and incubating wrapped in foil. Following addition of PS to cells, cells were no longer observed on the microscope.
Cells were plated on a Labt-Tek® 8 Chambered #1.0 Borosilicate Coverglass System. With some cell lines, it is often useful to use an attachment factor (200 μl, 30 mins, 37° C.) to coat the wells first.
Photosensitiser solutions in phenol red free DMEM (10% FBS, 1% P/S, 0.5% DMSO) were prepared fresh and pre-warmed to 37° C. for 15 mins. The cells were washed with media (1×200 μl) before adding the solutions (200 μl per chamber). Unless otherwise stated, the cells were grown over 20 hrs in a humidified atmosphere (37° C., 5% CO2). The cells were washed (2×200 μl) with prewarmed phenol red free DMEM
Lysotracker® Green DND-26 was diluted according to manufacturers indications (1 mM stock) and further diluted to twice the working concentration in DMEM (10% FBS, 1% P/S). For use for single colour staining, this was diluted with DMEM (10% FBS, 1% P/S) to a final concentration of 1 μM. When it was used for two colour staining with photosensitisers, a 2 μM solution was twice diluted in photosensitiser solution to give a 1 μM final concentration.
The cells were incubated for 15 mins at 4° C. and a further 30 mins at 37° C. before replacing with fresh medium and imaging.
MitoTracker® Green was diluted according to manufacturers indications (1 mM stock) and further diluted to twice the working concentration in DMEM (10% FBS, 1% P/S). For use for single colour staining, this was diluted with DMEM (10% FBS, 1% P/S) to a final concentration of 1 μM. When it was used for two colour staining with photosensitisers, a 2 μM solution was twice diluted in photosensitiser solution to give a 1 μM final concentration.
The cells were incubated for 15 mins at 4° C. and a further 1 hr at 37° C. before replacing with fresh medium and imaging.
ER-Tracker™ Green (BODIPY® FL glibenclamide) was diluted according to manufacturer's indications (1 mM stock) and further diluted to twice the working concentration in HBSS buffer (+2% HEPES). For use for single colour staining, this was diluted with HBSS (+2% HEPES) to a final concentration of 3 μM. When it was used for two colour staining with photosensitisers, a 6 μM solution was twice diluted in photosensitiser solution to give a 3 μM final concentration.
The cells were incubated for 15 mins at 4° C. and a further 1 hr at 37° C. before replacing with fresh buffer and imaging.
Bodipy® FL C5-ceramide complexed to BSA was diluted according to manufacturer's indications (0.5 mM stock) and further diluted to twice the working concentration in HBSS buffer (+2 HEPES). For use for single colour staining, this was diluted with HBSS (+2% HEPES) to a final concentration of 5 μM. When it was used for two colour staining with photosensitisers, a 10 μM solution was twice diluted in photosensitiser solution to give a 5 μM final concentration. The cells were incubated for 15 mins at 4° C. and a further 30 mins at 37° C. before washing with cold HBSS/HEPES (3×100 μl) and replacing with either HBSS/HEPES or photosensitiser solution and incubating at 37° C. for a further 30 mins before replacing with fresh buffer and imaging.

[2] = Biodistribution and blood clearance of 125I-radiolabelled photosensitisers and PICs in SKOV3 tumour mice; format: in vivo, BALB/c nude mice; conditions: for blood clearance: iv, radiolabelled, 1-24 hr, SKOV3 tumour mice
Experimental: 0.1 mg of photosensitiser was dissolved in 0.5 ml PBS. Radiolabelled Iodine (Na^125I, ICN chemicals) was added to 0.1 ml of PBS in Iodogen-coated tubes (Pierce chemicals) and allowed to activate. The activated iodine-125 was transferred to the photosensitiser and allowed to react for 5-10 minutes at room temperature. The radiolabelled photosensitiser was separated from free iodine on a mini silica gel column eluting with 100% PBS to remove the iodinating agent followed by a gradual switch from 10% MeOH/PBS to 100% MeOH with the radiolabelled photosenstiser eluting with 10% MeOH/chloroform. The radiolabelled solutions of the photosensitiser was allowed to air-dry and re-suspended in PBS containing 2% DMSO.
(§1) Female BALB/c nude mice (aged 6-8 weeks old) were implanted with 10^7 SKOV3 tumour cells mixed in 0.1 ml of ice-cold matrigel subcutaneously and the tumours were allowed to grow for 3-6 weeks as xenografts. Mice were maintained in IVC cages (individually-vented cages) in a clean room. Samples were injected in a volume of 0.1 ml, intravenously via the lateral tail vein and the mice were maintained in low light with full food and water (irradiated). At various time points (1-24 hr), mice were culled by cardiac puncture under terminal anesthesia and blood and tissues collected. All the tissues were counted for radioactivity by gamma counting and weighed.
The results are shown as a percentage of radioactive material injected per gram of tissue.
(§2) The PS (PPa and PPa-PEG) were chemically coupled to C6 scFv, radiolabelled with iodogen as before, but dialysed against 3×5 L of PBS to remove the free iodine and injected into BALB/c nude mice with SKOV3 tumours as above. Tissues were dissected and counted as above.

SKOV3 tumour = assay: Tumour uptake and tumour:blood ratio of radiolabelled photosensitisers and PICs; format: in vivo, BALB/c nude mice; conditions: % of the injected dose/g of tumour tissue
Experimental: as §1, §2
The tumours were counted for radioactivity and expressed as % of the injected dose/g of tumour tissue (FIG. 10).
The percentage PS in the tumour was divided by the percentage in the blood (gram for gram) to give a targeting or tumour:blood ratio (the higher the better). This plotted in FIG. 11. A high tumour:blood ratio means that there is more in the tumour compared to the blood (and other tissues). This is a function of tumour uptake and blood clearance (see FIGS. 9 and 10).

[3] = reference value of PPa in toluene; cited from earlier work
[4] = Photophysical parameters of the photosensitisers; format: physicochemical; conditions: for φΔ, singlet oxygen quantum yield: determined vs. PPa in toluene (0.5), 10% error; for φf, fluorescence quantum yield: determined vs. PPa in toluene (φf = 0.3), 5% error
SKOV3 = assay: In vitro phototoxicity (MTS cell titre assay after 670 nm laser light), Example 5; format: cell-based, human; conditions: free photosensitisers, 2 hrs incubation, 670 nm laser 0.5 W 10 s, MTS after 48 h
Experimental: (§3) Two different human-derived tumour cell lines: SKOV3 and KB were obtained from the European Collection of Cell Cultures (ECACC) and cultured in Dulbecco's modified Eagle's medium (DMEM) with 10% foetal bovine serum, penicillin and streptomycin antibiotics (1%) and passaged when 70-90% confluent in 75 cm^2 flasks. The cells were maintained at 37° C. in a humidified 5% CO2 atmosphere.
(§4) Cells were trypsinised and seeded at 2×10^3 cells/well for KB and 3×10^3 cells/well for SKOV3 into 96-well plates and incubated over two nights for KB and overnight for SKOV3 at 37° C. and 5% CO2. The cells were then washed once in phenol red free DMEM and appropriately diluted photosensitiser solution or photo-immunoconjugate (in DMEM, 2% DMSO) was added to the appropriate wells under subdued lighting. DMEM or Triton X-100 (1%) were added to control wells. After 2 hrs incubation in the dark at 37° C., 5% CO2, cells were washed three times with PBS and 100 μl of DMEM was added to each well.
(§5) Wells were exposed to light from a High Powered-Devices 670 nm laser used at 0.5 W for 10 s. Controls included wells with photosensitiser added and no exposure to light, or DMEM added and exposure to light as well as Triton X-100 (1%) with or without light exposure. Cells that had no photosensitiser added and no exposure to light were included as overall controls. Cells were incubated in the dark at 37° C., 5% CO2 for 48 h after which time, a cell titre assay was performed according to the manufacturer's instructions. The Promega Cell Titre-96 system was used which involves the conversion by live cells of a tetrazolium compound (MTS) into a formazan dye which is measurable by its absorbance at 490 nm.

KB = assay: as above; format: cell-based, human; conditions: free photosensitisers, 2 hrs incubation, 670 nm laser 0.5 W 10 s, MTS after 48 h
Experimental: as §3, §4, §5

[5] = Skin photosensitivity in a murine model; format: in vivo; conditions: laser on the skin after 1 hour, monitored over 4 days, scale of 1-4
Experimental: FIG. 24: Skin photosensitivity of Foscan compared to compound II. Photosensitisers were administered at t=0 hrs and a laser shone on the skin after 1 hour. The skin reaction was followed over time and the results were plotted according to the scale shown.
Skin photosensitivity is an important issue to be resolved in PDT. […] In a murine model, Foscan was administered at clinical doses (ref 109) and compared to compound 11 and a photo-immunoconjugate of compound 11. Skin photosensitivity was monitored over 4 days by observation according to a scale of 1-4 (FIG. 24).

[6] = background statement; cited from earlier work

N-Bis-[3-(trimethylamino)propyl]-meso 5-Bromopyropheophorbide a amide diiodide [compound 19]
solubility in water [1]: readily soluble in water and methanol

Meso pyropheophorbide a-3,4,5-(triethylene glycol monmethylether) 3-devinyl-3-carboxybenzyl-3,4,5-(triethylene glycol monomethylether) pyropheophorbide a [compound 38]
solubility in water [1]: highly aqueous soluble

Pyropheophorbide-a [PPa, reference compound]
golgi localisation (co-localisation with Bodipy ceramide) (SKOV3 cells): significant yellow staining
mitochondrial localisation (co-localisation with Mito-tracker) (SKOV3 cells): significant yellow staining
lysosomal localisation (co-localisation with Lyso-tracker) (SKOV3 cells): insignificant yellow staining
level in tissues (biodistribution) ([2]; % of radioactive material injected per gram of tissue, over 24 hour): high levels in all major tissues
blood clearance [2]: resides in the blood for a long time; also recorded: very slow
tumour uptake (SKOV3 tumour): high
φf, fluorescence quantum yield [3]: 0.3
φΔ, singlet oxygen quantum yield [3]: 0.5
τΔ, singlet oxygen lifetime [4]: 30 μs
IC50 (SKOV3): 14.5 ± 3.2 µM
IC50 (KB): 1.2 ± 0.4 µM

Oc1cccc(-c2c3nc(c(-c4cccc(O)c4)c4ccc([nH]4)c(-c4cccc(O)c4)c4nc(c(-c5cccc(O)c5)c5ccc2[nH]5)CC4)C=C3)c1 [Foscan, reference compound]
skin photosensitivity [5]: significant skin sensitivity
skin photosensitivity (duration) [6]: about 2 weeks

Manganese(III)-5-ethynyl hexynoic acid pyropheophorbide a-3,4,5-(triethylnene glycol monomethyl ether) benzyl ester [compound 57]
solubility in water [1]: water soluble

CCC1=C(C)c2cc3[nH]c(c(C)c3CC)c(-c3cc[n+](CCOCCOCCOC)cc3)c3nc(c4c5[nH]c(cc1n2)c(C)c5C(=O)C4)[C@@H](CCC(=O)O)[C@@H]3C [compound 31C, 3-devinyl-20-(4-triethyleneoxidepyridinium) pyropheophorbide-a chloride]
golgi localisation (co-localisation with Bodipy ceramide) (SKOV3 cells): very little yellow staining
mitochondrial localisation (co-localisation with Mito-tracker) (SKOV3 cells): very little yellow staining
lysosomal localisation (co-localisation with Lyso-tracker) (SKOV3 cells): significant yellow staining
ER localisation (co-localisation with ER-tracker) (SKOV3 cells; FIG. 23): no yellow staining
intracellular localisation (intrinsic fluorescence) (SKOV3 cells; no co-stain, FIG. 19): more punctuate staining pattern indicative of endosomal (aqueous compartment) localisation
blood clearance [2]: clears more rapidly than the PPa-PEG
τΔ, singlet oxygen lifetime [4]: 30 μs
φΔ, singlet oxygen quantum yield [4]: 0.73
φf, fluorescence quantum yield [4]: 0.15
IC50 (SKOV3; Homo sapiens, SK-OV-3): 260 ± 31 µM
IC50 (KB; Homo sapiens, KB): 24.7 ± 11.7 µM

CCC1=C(C)c2cc3[nH]c(c(C)c3CC)c(C#CCCCC(=O)O)c3nc(c4c5[nH]c(cc1n2)c(C)c5C(=O)C4)[C@@H](CCC(=O)OCc1cc(OCCOCCOCCOC)c(OCCOCCOCCOC)c(OCCOCCOCCOC)c1)[C@@H]3C [compound 10, Meso 5-Ethynylhexanoic acid pyropheophorbide a-3,4,5-(triethylene glycolmonomethylether) benzyl ester]
τΔ, singlet oxygen lifetime [4]: 30 μs
φΔ, singlet oxygen quantum yield [4]: 0.56
φf, fluorescence quantum yield [4]: 0.26
